The target in this test is T1, human M1 muscarinic acetylcholine receptors (Homo sapiens, UniProt P11229).
T1 sequence (P11229 1-460): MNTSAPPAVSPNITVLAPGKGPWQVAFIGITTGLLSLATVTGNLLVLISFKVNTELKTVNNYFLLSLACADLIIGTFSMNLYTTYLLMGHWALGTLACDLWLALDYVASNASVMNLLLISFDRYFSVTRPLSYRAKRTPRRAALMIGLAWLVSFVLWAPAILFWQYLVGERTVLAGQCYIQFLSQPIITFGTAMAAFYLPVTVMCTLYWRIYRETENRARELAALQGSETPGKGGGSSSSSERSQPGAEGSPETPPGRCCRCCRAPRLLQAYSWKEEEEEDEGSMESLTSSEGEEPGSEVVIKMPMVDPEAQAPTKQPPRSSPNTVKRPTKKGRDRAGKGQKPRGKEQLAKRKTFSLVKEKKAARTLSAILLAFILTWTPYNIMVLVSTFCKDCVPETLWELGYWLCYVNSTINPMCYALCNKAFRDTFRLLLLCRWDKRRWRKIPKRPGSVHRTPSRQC
Description: M1 FLIPR assay (PAM, intracellular calcium). It counts as cell-based. The note with it: potentiation of EC10-EC30 acetylcholine, values marked a: geometric mean of ≧7 determinations, read-out: M1 PAM Inflection Point (μM) Geometric mean of 2-6 determinations (unless otherwise indicated). The protocol: This assay was designed to select and characterize compounds that affect the activity of human M1 muscarinic acetylcholine receptors (Similar M1 PAM FLIPR assays can be found, for example, at U.S. Pat. No. 8,664,234). Human M1 receptors were stably expressed in Chinese hamster ovary (CHO) cells (HD Bioscience). The effect of test compounds on intracellular calcium was measured on an FLIPR Tetra (Molecular Devices) using the Fluo-8, AM calcium dye (Molecular Probes) with a red dye quenching agent (Sigma).
CHO cells expressing hM1 cells had been previously cultured and frozen in assay ready vials. Cell vials were thawed, then plated at a density of 10,000 cells per well in a 384 well black wall, clear bottom plate (Greiner #781090) and incubated overnight at 37 degrees C. with 5% CO2. Cells were grown and plated in F12 nutrient media (Gibco BRL #21700-075) supplemented with 10% FBS (Hyclone #CH30160.03) and Pen/Strep (Gibco #15070-063).
After overnight incubation, cell plates were removed from the incubator and the growth media was discarded and replaced with loading solution containing the following: 2 μM Fluo-8-AM (Molecular Probes #F14242), 2 mM Probenecid (Sigma #P8761), lx Acid Red 1 (Sigma #210633), in HBSS buffer containing (grams/L): 0.1 CaCl2, 0.1 MgCl2*6H2O, 0.049 MgSO4, 0.4 KCl, 0.06 KH2PO4, 8.06 NaCl, 0.12 Na2HPO4*12H2O, 1.1 D-glucose*H2O, 0.35 NaHCO3, 4.766 HEPES, pH 7.4. The plate was incubated in the loading solution at 37 degrees C. in the dark for 1 hour.
Test compounds were initially prepared as 100% DMSO stock solutions, then transferred and serially diluted in 384-well compound plates (Greiner #784201). Each compound was tested at 10 concentrations in duplicate per experiment. Positive and negative controls for positive allosteric modulator evaluation were 30 μM acetylcholine (Ach) and an EC10-EC30 concentration of acetylcholine, approximately 2 nM but could be adjusted for each experiment to maintain the EC10-EC30 range.
After the 1-hour dye loading incubation, test compounds were added to the cell plate containing Fluo-8. Approximately 10 minutes after compound addition, an EC10-EC30 concentration of acetylcholine was added to each well and the fluorescence measured to determine the PAM potentiation of the compound.
Data was exported from the FLIPR Tetra as maximum fluorescence/minimum fluorescence for each well. The percent effect for each compound well was determined using the mean values for the positive and negative controls on each plate for each read. Percent effect was 100*(compound negative control)/(positive control negative control). Dose response curves were fitted to the compound percent effect data using a 4-parameter logistic fit model to determine PAM (positive allosteric modulator) Inflection Point values. Compounds with inverted U dose response curves had the concentrations greater than the concentration giving the peak response excluded from the fit. Data was reported as Inflection Point. The compounds of Examples 1-72 had activity according to this assay, generally with an Inflection Point (IP) of 10 μM or less (using Inflection Point as a measure of activity). Such a result is indicative of the intrinsic activity of the compounds of the invention as M1 allosteric modulators.
Background: Calcium flux is commonly read through the fluorescence of an indicator in the cells.
Regarding `Cc1cnc(C(=O)NC2CCCC2O)cc1Cc1ccc(-n2cccn2)cc1` (racemic) [Example 34, N-[trans-2-hydroxycyclopentyl]-5-methyl-4-[4-(1H-pyrazol-1-yl)benzyl]pyridine-2-carboxamide], the EC50 was found to be 1.02 µM.
Turning to `Cc1cnc(C(=O)NC2CCCC2O)cc1Cc1ccc(-n2cccn2)cc1` (racemic) [Example 49, N-[cis-2-hydroxycyclopentyl]-5-methyl-4-[4-(1H-pyrazol-1-yl)benzyl]pyridine-2-carboxamide], the EC50 came out at 1.63 µM.
Regarding `Cc1nnc(-c2ccc(Cc3cc(C(=O)NC4CCOCC4O)ncc3C)cc2)o1` (single isomer, unassigned) [Example 20], the EC50 is over 9.94 µM.
The figure for `Cc1nnc(-c2ccc(Cc3cc(C(=O)NC4CCOCC4O)ncc3C)cc2)o1` (single isomer, unassigned) [Example 21] is 1.95 µM; for `Cc1cnc(C(=O)NC2CCCCC2(F)F)cc1Cc1ccc(-n2cccn2)cc1` (single isomer, unassigned) [Example 46] it is 1.22 µM.
Regarding `Cc1cnc(C(=O)NC2CCCCC2(F)F)cc1Cc1ccc(-n2cccn2)cc1` (single isomer, unassigned) [Example 47], the EC50 was 0.57 µM.
Take `Cc1cnc(C(=O)N[C@H]2CCCC[C@@H]2O)cc1C(F)c1ccc(-n2cccn2)cc1` (single isomer, unassigned) [Example 63]: the EC50 was 8.76 µM.
With `Cc1cnc(C(=O)N[C@H]2CCCC[C@@H]2O)cc1C(F)c1ccc(-n2cccn2)cc1` (single isomer, unassigned) [Example 64], the EC50 is 0.033 µM.
The figure for `Cc1nc(-c2ccc(Cc3cc(C(=O)NC4CCOCC4O)ncc3C)cc2)co1` (single isomer, unassigned; (+)) [Example 11, (+)-N-[(3,4-trans)-3-Hydroxytetrahydro-2H-pyran-4-yl]-5-methyl-4-[4-(2-methyl-1,3-oxazol-4-yl)benzyl]pyridine-2-carboxamide] is 0.146 µM; for `Cc1cnc(C(=O)NC2CCCCC2O)cc1Cc1ccc(-n2cccn2)cc1` (single isomer, unassigned; (+)) [Example 13, (+)-N-[(1,2-cis)-2-Hydroxycyclohexyl]-5-methyl-4-[4-(1H-pyrazol-1-yl)benzyl]pyridine-2-carboxamide] it is 1.46 µM.
The figure for `Cc1nc(-c2ccc(Cc3cc(C(=O)NC4CCOCC4O)ncc3C)cc2)co1` (single isomer, unassigned; (-)) [Example 10, (−)-N-[(3,4-trans)-3-Hydroxytetrahydro-2H-pyran-4-yl]-5-methyl-4-[4-(2-methyl-1,3-oxazol-4-yl)benzyl]pyridine-2-carboxamide] is 6.34 µM; for `Cc1cnc(C(=O)NC2CCCCC2O)cc1Cc1ccc(-n2cccn2)cc1` (single isomer, unassigned; (-)) [Example 12, (−)-N-[(1,2-cis)-2-Hydroxycyclohexyl]-5-methyl-4-[4-(1H-pyrazol-1-yl)benzyl]pyridine-2-carboxamide] it is 0.96 µM.
The same measure for `Cc1cnc(C(=O)N[C@H]2CCOC[C@@H]2O)cc1C(F)c1ccc(-c2cscn2)cc1` (single isomer, unassigned; diastereomer 1) [Example 59]: 1.83 µM.
Consider `Cc1cnc(C(=O)NC2CCOCC2O)cc1Cc1ccc(-c2cncs2)cc1` (single isomer, unassigned; ent-1) [Example 4, N-[(3,4-trans)-3-Hydroxytetrahydro-2H-pyran-4-yl]-5-methyl-4-[4-(1,3-thiazol-5-yl)benzyl]pyridine-2-carboxamide, ENT-1], for which the EC50 was 8.11 µM.
The figure for `Cc1cnc(C(=O)NC2CCOCC2O)cc1Cc1ccc(-c2cncs2)cc1` (single isomer, unassigned; ent-2) [Example 5, N-[(3,4-trans)-3-Hydroxytetrahydro-2H-pyran-4-yl]-5-methyl-4-[4-(1,3-thiazol-5-yl)benzyl]pyridine-2-carboxamide, ENT-2] is 0.18 µM.

Source of the values: patent US20160016907A1, “PYRIDINE DERIVATIVES AS MUSCARINIC M1 RECEPTOR POSITIVE ALLOSTERIC MODULATORS” (PFIZER INC., priority 2014, published 2016).
